Literature values in PubChem BioAssay AID1259409 (Chemical Carcinogenesis Research Information System (CCRIS), 2018).
Values joined by “and” are separate entries in the source; they are usually repeats but may differ in a detail not shown here. Equal entries are not always repeated.

Test system: rodent chemically induced tumor inhibition, incidence and multiplicity
Experiment: CCRIS tumor inhibitor studies

Nc1nc(N)nc(-c2cc(Cl)ccc2Cl)n1
tumour outcome (control, treated, inhibition, significance) (Carcinogen: DIETHYLNITROSAMINE, 55-18-5, Dose [Inhibitor]: 0, 125 PPM IN DIET BEGINNING 1 WK POST CARCINOGEN DOSE (STUDY DURATION: 36 WK), Route [Inhibitor]: ORAL, Species: RAT, Strain/Sex: F344/MALE, Target Tissue: Type of Lesion: LIVER: TUMOR, Dose [Carcinogen]: 200 MG/KG BW ONCE, Promoter: PHENOBARBITAL, 50-06-6): 14/14 (100%), 0/15 (0%), 100%, not calculated
tumour outcome (control, treated, inhibition, significance) (Carcinogen: N-METHYL-N'-NITRO-N-NITROSOGUANIDINE, 70-25-7, Dose [Inhibitor]: 0, 100 PPM IN DIET FOR FIRST 25 WK (STUDY DURATION: 55 WK), Route [Inhibitor]: ORAL, Species: RAT, Strain/Sex: WISTAR/MALE, Target Tissue: Type of Lesion: DUODENUM: ADENOMA, ADENOCARCINOMA OR SARCOMA, Dose [Carcinogen]: 100 MG/L IN DRINKING WATER FOR FIRST 25 WK, Promoter: GLYOXAL, 107-22-2): 6/12 (50%), 4/16 (25%), 50%, not significant
tumour outcome (control, treated, inhibition, significance) (Carcinogen: N-METHYL-N'-NITRO-N-NITROSOGUANIDINE, 70-25-7, Dose [Inhibitor]: 0, 100 PPM IN DIET FOR FIRST 25 WK (STUDY DURATION: 55 WK), Route [Inhibitor]: ORAL, Species: RAT, Strain/Sex: WISTAR/MALE, Target Tissue: Type of Lesion: FORESTOMACH: PAPILLOMA, Dose [Carcinogen]: 100 MG/L IN DRINKING WATER FOR FIRST 25 WK, Promoter: GLYOXAL, 107-22-2): 3/12 (25%), 1/16 (6%), 76%, not significant
tumour outcome (control, treated, inhibition, significance) (Carcinogen: N-METHYL-N'-NITRO-N-NITROSOGUANIDINE, 70-25-7, Dose [Inhibitor]: 0, 100 PPM IN DIET FOR FIRST 25 WK (STUDY DURATION: 55 WK), Route [Inhibitor]: ORAL, Species: RAT, Strain/Sex: WISTAR/MALE, Target Tissue: Type of Lesion: GASTROINTESTINAL TRACT (UPPER): BENIGN OR MALIGNANT TUMOR, Dose [Carcinogen]: 100 MG/L IN DRINKING WATER FOR FIRST 25 WK, Promoter: GLYOXAL, 107-22-2): 11/12 (92%), 9/16 (56%), 39%, p<0.05
tumour outcome (control, treated, inhibition, significance) (Carcinogen: N-METHYL-N'-NITRO-N-NITROSOGUANIDINE, 70-25-7, Dose [Inhibitor]: 0, 100 PPM IN DIET FOR FIRST 25 WK (STUDY DURATION: 55 WK), Route [Inhibitor]: ORAL, Species: RAT, Strain/Sex: WISTAR/MALE, Target Tissue: Type of Lesion: GLANDULAR STOMACH: ADENOMA, ADENOCARCINOMA OR SARCOMA, Dose [Carcinogen]: 100 MG/L IN DRINKING WATER FOR FIRST 25 WK, Promoter: GLYOXAL, 107-22-2): 9/12 (75%), 6/16 (38%), 49%, p<0.05
tumour outcome (control, treated, inhibition, significance) (Carcinogen: N-METHYL-N'-NITRO-N-NITROSOUGUANIDINE, 70-25-7, Dose [Inhibitor]: 0, 25 PPM IN DIET FOR THE DURATION OF THE STUDY (STUDY DURATION: 55 WK), Route [Inhibitor]: ORAL, Species: RAT, Strain/Sex: WISTAR/MALE, Target Tissue: Type of Lesion: BILE DUCT: CHOLANGIOMA, Dose [Carcinogen]: 100 MG/L IN DRINKING WATER FOR FIRST 25 WK, Promoter: GLYOXAL, 107-22-2): 1/12 (8%), 0/12 (0%), 100%, not significant
tumour outcome (control, treated, inhibition, significance) (Carcinogen: N-METHYL-N'-NITRO-N-NITROSOUGUANIDINE, 70-25-7, Dose [Inhibitor]: 0, 25 PPM IN DIET FOR THE DURATION OF THE STUDY (STUDY DURATION: 55 WK), Route [Inhibitor]: ORAL, Species: RAT, Strain/Sex: WISTAR/MALE, Target Tissue: Type of Lesion: FORESTOMACH: PAPILLOMA, Dose [Carcinogen]: 100 MG/L IN DRINKING WATER FOR FIRST 25 WK, Promoter: GLYOXAL, 107-22-2): 3/12 (25%), 1/12 (8%), 68%, not significant
tumour outcome (control, treated, inhibition, significance) (Carcinogen: N-METHYL-N'-NITRO-N-NITROSOUGUANIDINE, 70-25-7, Dose [Inhibitor]: 0, 25 PPM IN DIET FOR THE DURATION OF THE STUDY (STUDY DURATION: 55 WK), Route [Inhibitor]: ORAL, Species: RAT, Strain/Sex: WISTAR/MALE, Target Tissue: Type of Lesion: GASTROINTESTINAL TRACT (UPPER): BENIGN OR MALIGNANT TUMOR, Dose [Carcinogen]: 100 MG/L IN DRINKING WATER FOR FIRST 25 WK, Promoter: GLYOXAL, 107-22-2): 11/12 (92%), 7/12 (58%), 37%, not significant
tumour outcome (control, treated, inhibition, significance) (Carcinogen: N-METHYL-N'-NITRO-N-NITROSOUGUANIDINE, 70-25-7, Dose [Inhibitor]: 0, 25 PPM IN DIET FOR THE DURATION OF THE STUDY (STUDY DURATION: 55 WK), Route [Inhibitor]: ORAL, Species: RAT, Strain/Sex: WISTAR/MALE, Target Tissue: Type of Lesion: GLANDULAR STOMACH: ADENOMA, ADENOCARCINOMA OR SARCOMA, Dose [Carcinogen]: 100 MG/L IN DRINKING WATER FOR FIRST 25 WK, Promoter: GLYOXAL, 107-22-2): 9/12 (75%), 5/12 (42%), 44%, not significant
tumour outcome (control, treated, inhibition, significance) (Carcinogen: N-METHYL-N'-NITRO-N-NITROSOUGUANIDINE, 70-25-7, Dose [Inhibitor]: 0, 100 PPM IN DIET FOR FIRST 25 WK (STUDY DURATION: 55 WK), Route [Inhibitor]: ORAL, Species: RAT, Strain/Sex: WISTAR/MALE, Target Tissue: Type of Lesion: BILE DUCT: CHOLANGIOMA, Dose [Carcinogen]: 100 MG/L IN DRINKING WATER FOR FIRST 25 WK, Promoter: GLYOXAL, 107-22-2): 1/12 (8%), 0/12 (0%), 100%, not significant and 1/12 (8%), 0/15 (0%), 100%, not significant
tumour outcome (control, treated, inhibition, significance) (Carcinogen: N-METHYL-N'-NITRO-N-NITROSOUGUANIDINE, 70-25-7, Dose [Inhibitor]: 0, 100 PPM IN DIET FOR FIRST 25 WK (STUDY DURATION: 55 WK), Route [Inhibitor]: ORAL, Species: RAT, Strain/Sex: WISTAR/MALE, Target Tissue: Type of Lesion: DUODENUM: ADENOMA, ADENOCARCINOMA OR SARCOMA, Dose [Carcinogen]: 100 MG/L IN DRINKING WATER FOR FIRST 25 WK, Promoter: GLYOXAL, 107-22-2): 6/12 (50%), 4/12 (33%), 34%, not significant and 6/12 (50%), 4/15 (20%), 60%, not significant
tumour outcome (control, treated, inhibition, significance) (Carcinogen: N-METHYL-N'-NITRO-N-NITROSOUGUANIDINE, 70-25-7, Dose [Inhibitor]: 0, 100 PPM IN DIET FOR FIRST 25 WK (STUDY DURATION: 55 WK), Route [Inhibitor]: ORAL, Species: RAT, Strain/Sex: WISTAR/MALE, Target Tissue: Type of Lesion: FORESTOMACH: PAPILLOMA, Dose [Carcinogen]: 100 MG/L IN DRINKING WATER FOR FIRST 25 WK, Promoter: GLYOXAL, 107-22-2): 3/12 (25%), 3/12 (25%), 0%, not significant and 3/12 (25%), 1/15 (7%), 72%, not significant
tumour outcome (control, treated, inhibition, significance) (Carcinogen: N-METHYL-N'-NITRO-N-NITROSOUGUANIDINE, 70-25-7, Dose [Inhibitor]: 0, 100 PPM IN DIET FOR FIRST 25 WK (STUDY DURATION: 55 WK), Route [Inhibitor]: ORAL, Species: RAT, Strain/Sex: WISTAR/MALE, Target Tissue: Type of Lesion: GASTROINTESTINAL TRACT (UPPER): BENIGN OR MALIGNANT TUMOR, Dose [Carcinogen]: 100 MG/L IN DRINKING WATER FOR FIRST 25 WK, Promoter: GLYOXAL, 107-22-2): 11/12 (92%), 5/12 (42%), 54%, p<0.02 and 11/12 (92%), 6/15 (40%), 57%, p<0.01
tumour outcome (control, treated, inhibition, significance) (Carcinogen: N-METHYL-N'-NITRO-N-NITROSOUGUANIDINE, 70-25-7, Dose [Inhibitor]: 0, 100 PPM IN DIET FOR FIRST 25 WK (STUDY DURATION: 55 WK), Route [Inhibitor]: ORAL, Species: RAT, Strain/Sex: WISTAR/MALE, Target Tissue: Type of Lesion: GLANDULAR STOMACH: ADENOMA, ADENOCARCINOMA OR SARCOMA, Dose [Carcinogen]: 100 MG/L IN DRINKING WATER FOR FIRST 25 WK, Promoter: GLYOXAL, 107-22-2): 9/12 (75%), 3/12 (25%), 67%, p<0.02 and 9/12 (75%), 5/15 (33%), 56%, p<0.02

CC(C)c1cc(C(=O)O)c(O)c(C(C)C)c1
tumour outcome (control, treated, inhibition, significance) (Carcinogen: BENZO[A]PYRENE, 50-32-8, Dose [Inhibitor]: 2000 NMOL IN 0.2 ML ACETONE APPLIED ONCE TO DORSAL SKIN 15 MIN PRIOR TO CARCINOGEN DOSE (STUDY DURATION: 20 WK), Route [Inhibitor]: DERMAL, Species: MOUSE, Strain/Sex: SENCAR/FEMALE, Target Tissue: Type of Lesion: SKIN: PAPILLOMA, Dose [Carcinogen]: 200 NMOL IN 0.2 ML ACETONE ONCE): 97%, 96%, 0.3%, not significant

O=C(O)/C=C/c1ccccc1
tumour outcome (control, treated, inhibition, significance) (Carcinogen: BENZO[A]PYRENE, 50-32-8, Dose [Inhibitor]: 0.06 MMOL/G OF DIET DAILY STARTING 7 D BEFORE AND CONTINUING THROUGH 3 D AFTER CARCINOGEN TREATMENT FOLLOWED BY OBSERVAT, Route [Inhibitor]: ORAL, Species: MOUSE, Strain/Sex: ICR/FEMALE, Target Tissue: Type of Lesion: FORESTOMACH: NEOPLASM, Dose [Carcinogen]: 1 MG IN 0.2 ML CORN OIL 2/WK FOR 4 WK, Promoter: NONE USED): 97%, 100%, -3%, not significant and 100%, 94%, 6%, not significant

CCNC(=O)[C@@H]1CCCN1C(=O)[C@H](CCCN=C(N)N)NC(=O)[C@H](CC(C)C)NC(=O)[C@@H](CC(C)C)NC(=O)[C@H](Cc1ccc(O)cc1)NC(=O)[C@H](CO)NC(=O)[C@H](Cc1c[nH]c2ccccc12)NC(=O)[C@H](Cc1cnc[nH]1)NC(=O)[C@@H]1CCC(=O)N1
tumour outcome (control, treated, inhibition, significance) (Carcinogen: N-BUTYL-N-(4-HYDROXYBUTYL)NITROSAMINE, 3817-11-6, Dose [Inhibitor]: 0, 1 MG/KG 1/4 WK FOR 11 WK BEGINNING POST CARCINOGEN TREATMENT (STUDY DURATION: 21 WK), Route [Inhibitor]: SUBCUTANEOUS, Species: RAT, Strain/Sex: WISTAR/MALE, Target Tissue: Type of Lesion: URINARY BLADDER:CARCINOMA, Dose [Carcinogen]: 0.05% IN DRINKING WATER FOR 10 WK, Promoter: NONE USED): 15/17 (88%), 10/18 (56%), 36%, p<0.05

S=C=NCc1cc2ccccc2c2ccccc12
outcome (Carcinogen: BENZO[A]PYRENE, 50-32-8, Dose [Inhibitor]: 0, 5 UMOL IN ACETONE 4 HR PRIOR TO CARCINOGEN DOSE (STUDY DURATION: 20 WK), Route [Inhibitor]: DERMAL, Species: MOUSE, Strain/Sex: STRAIN-A/FEMALE, Target Tissue: Type of Lesion: SKIN: TUMOR, Dose [Carcinogen]: 0.1 UMOL IN ACETONE ONCE, Promoter: 12-O-TETRADECANOYLPHORBOL-13-ACETATE, 16561-29-8): 85%, 95%, -12%, not significant at 15 wk; 95%, 95%, 0%, not significant at 20 wk
